Reference: ChEMBL document CHEMBL3232934, “Synthesis of thio-heterocyclic analogues from Baylis-Hillman bromides as potent cyclooxygenase-2 inhibitors” (Bioorg Med Chem Lett, 2014)

Columns and labels:
[1] = target: T1, Prostaglandin G/H synthase 2 (Homo sapiens) (UniProt P35354); details: at 100 µM
T1 sequence (whole entry): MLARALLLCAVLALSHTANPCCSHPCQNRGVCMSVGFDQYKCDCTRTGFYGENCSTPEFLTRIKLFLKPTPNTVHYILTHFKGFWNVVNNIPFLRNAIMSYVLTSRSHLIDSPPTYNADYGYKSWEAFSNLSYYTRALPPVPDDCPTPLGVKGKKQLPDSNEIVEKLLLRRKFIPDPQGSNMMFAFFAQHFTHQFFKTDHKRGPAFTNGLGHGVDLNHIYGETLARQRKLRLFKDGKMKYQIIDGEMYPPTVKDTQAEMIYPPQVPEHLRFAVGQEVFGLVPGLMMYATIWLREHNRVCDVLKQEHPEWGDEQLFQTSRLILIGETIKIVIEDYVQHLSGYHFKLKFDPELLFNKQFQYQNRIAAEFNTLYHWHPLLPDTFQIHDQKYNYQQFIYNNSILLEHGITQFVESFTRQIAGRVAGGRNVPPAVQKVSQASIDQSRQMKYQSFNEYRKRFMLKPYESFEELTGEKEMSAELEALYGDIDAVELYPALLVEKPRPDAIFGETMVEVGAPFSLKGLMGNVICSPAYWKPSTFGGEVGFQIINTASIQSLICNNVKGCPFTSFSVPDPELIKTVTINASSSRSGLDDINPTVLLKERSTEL
Description: Inhibition of COX2 (unknown origin) at 100 uM by colorimetric method

[2] = target: Prostaglandin G/H synthase 1 (Homo sapiens) (UniProt P23219); details: at 100 µM;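 further: COX-1 enzyme inhibition, read out colorimetrically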
Chain of Prostaglandin G/H synthase 1 (Homo sapiens) (P23219 whole entry): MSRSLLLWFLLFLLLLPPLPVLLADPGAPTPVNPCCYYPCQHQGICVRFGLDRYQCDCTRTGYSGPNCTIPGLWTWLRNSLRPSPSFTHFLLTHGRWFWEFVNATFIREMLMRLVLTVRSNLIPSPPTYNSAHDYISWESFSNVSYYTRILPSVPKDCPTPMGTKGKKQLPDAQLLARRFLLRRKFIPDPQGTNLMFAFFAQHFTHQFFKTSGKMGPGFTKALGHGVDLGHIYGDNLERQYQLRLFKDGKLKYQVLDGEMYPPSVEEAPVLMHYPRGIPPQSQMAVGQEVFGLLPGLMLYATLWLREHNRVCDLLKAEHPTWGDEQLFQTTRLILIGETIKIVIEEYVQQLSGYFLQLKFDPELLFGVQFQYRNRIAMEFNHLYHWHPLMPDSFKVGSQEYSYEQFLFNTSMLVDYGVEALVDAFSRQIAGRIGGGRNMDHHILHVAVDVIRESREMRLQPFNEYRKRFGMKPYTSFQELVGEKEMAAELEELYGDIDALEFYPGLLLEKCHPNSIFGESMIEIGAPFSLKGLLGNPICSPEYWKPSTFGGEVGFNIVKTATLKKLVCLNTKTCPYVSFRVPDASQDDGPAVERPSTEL
Description: Inhibition of COX1 (unknown origin) at 100 uM by colorimetric method

[3] = target: T2, Prostaglandin G/H synthase 2 (Homo sapiens, UniProt P35354); test: Inhibition of COX2 (unknown origin) by colorimetric method
T2 sequence (P35354 whole entry): T1 sequence (whole entry)

Row | inhibition [1] | inhibition [2] | IC50 [3] | Structure (SMILES)
1 | 78.4% | 1% | 4.34 µM | COC(=O)/C(=C/c1ccc2ccccc2c1)CSc1nc2ccccc2o1
2 | 76.7% | 50% | – | CCOC(=O)/C(=C/c1cccc(Cl)c1)CSc1nc2ccccc2o1
3 | 72% | 47.8% | – | COC(=O)/C(=C/c1ccc(F)cc1)CSc1nc2ccccc2o1
4 | 77.4% | 44.1% | – | CCOC(=O)/C(=C/c1ccc(C(C)C)cc1)CSc1nc(C)cc(C)n1
5 | 64.7% | 54.3% | – | CCOC(=O)/C(=C/c1ccc(Br)cc1)CSc1nc2ccccc2o1
6 | 77.5% | 51.4% | – | COC(=O)/C(=C/c1ccc(C(F)(F)F)cc1)CSc1nc2ccccc2s1
7 | 74.8% | 42.7% | – | COC(=O)/C(=C/c1ccc(Cl)cc1)CSc1nc2ccccc2o1
8 | 78.5% | 38.3% | 3.17 µM | CCOC(=O)/C(=C/c1ccc(Br)cc1)CSc1nc(C)cc(C)n1
9 | 81.9% | 39% | 2.95 µM | COC(=O)/C(=C/c1ccc(C(F)(F)F)cc1)CSc1nc2ccccc2o1
10 | 77.1% | 2% | 4.76 µM | COC(=O)/C(=C/c1ccc(OC)cc1)CSc1nc2ccccc2o1
11 | 81% | 47% | – | CCOC(=O)/C(=C/c1ccc(C(C)C)cc1)CSc1nc2ccccc2o1

The next lines start with the compound.

Row | Structure (SMILES) | inhibition [1] | inhibition [2] | IC50 [3]
12 | COC(=O)/C(=C/c1ccc2ccccc2c1)CSc1nc(C)cc(C)n1 | 73.5% | 46.3% | –
13 | CCOC(=O)/C(=C/c1ccc(CC)cc1)CSc1nc(C)cc(C)n1 | 76.5% | 55.1% | –
14 | COC(=O)/C(=C/c1ccc(OC)cc1)CSc1nc(C)cc(C)n1 | 80.2% | 65.3% | –
15 | COC(=O)/C(=C/c1ccc(F)cc1)CSc1nc(C)cc(C)n1 | 71% | 50.7% | –
16 | CCOC(=O)/C(=C/c1cccc(Cl)c1)CSc1nc(C)cc(C)n1 | 78.6% | 24.4% | 5.88 µM
17 | COC(=O)/C(=C/c1ccc2ccccc2c1)CSc1nc2ccccc2s1 | 75.1% | 28.8% | 2.93 µM
18 | CCc1ccc(/C=C(\CSc2nncn2C)C(=O)OC)cc1 | 62.4% | 57.2% | –
19 | COC(=O)/C(=C/c1ccc(Cl)cc1)CSc1nc(C)cc(C)n1 | 53.5% | 50.7% | –
20 | CCOC(=O)/C(=C/c1cccc(F)c1)CSc1nncn1C | 78.6% | 20.8% | 3.88 µM
